# Experimental data: ChEMBL document CHEMBL4732113, “Exploiting the tolerant region I of the non-nucleoside reverse transcriptase inhibitor (NNRTI) binding pocket. Part 2: Discovery of diarylpyrimidine derivatives as potent HIV-1 NNRTIs with high Fsp values and favorable drug-like properties” (Eur J Med Chem, 2021); call rule not given here
# What was measured:
# [1] = tested on: Human immunodeficiency virus 1; test: Antiviral activity against HIV1 RES056 harboring K103N/Y181C double mutant infected in human MT4 cells assessed as reduction in virus-induced cytopathic effect by MTT assay; format: functional, organism-based
# [2] = tested on: Human immunodeficiency virus 1; test: Antiviral activity against HIV1 3B infected in human MT4 cells assessed as reduction in virus-induced cytopathic effect by MTT assay; format: functional, organism-based; conditions: Human immunodeficiency virus 1, 3B
# [3] = Selectivity index, ratio of CC50 for human MT4 cells to EC50 for antiviral activity against HIV 3B infected in human MT4 cells; format: toxicity, cell-based; conditions: read-out: Ratio CC50/EC50
# [4] = Selectivity index, ratio of CC50 for human MT4 cells to EC50 for antiviral activity against HIV HIV1 RES056 harboring K103N/Y181C double mutant infected in human MT4 cells; format: toxicity, cell-based; conditions: read-out: Ratio CC50/EC50
# [5] = (§1) Cytotoxicity against human MT4 cells assessed as reduction in cell viability by MTT assay; format: cell-based; conditions: MT4 cells
# [6] = tested on: Human immunodeficiency virus 1; test: Antiviral activity against HIV1 harboring K103N mutant infected in human MT4 cells assessed as reduction in virus-induced cytopathic effect by MTT assay; format: functional, organism-based; conditions: Human immunodeficiency virus 1, MT4
# [7] = tested on: Human immunodeficiency virus 1; test: Antiviral activity against HIV1 harboring Y181C mutant infected in human MT4 cells assessed as reduction in virus-induced cytopathic effect by MTT assay; format: functional, organism-based; conditions: Human immunodeficiency virus 1, MT4
# [8] = tested on: Human immunodeficiency virus 1; test: Antiviral activity against HIV1 harboring F227L/V106A mutant infected in human MT4 cells assessed as reduction in virus-induced cytopathic effect by MTT assay; format: functional, organism-based; conditions: Human immunodeficiency virus 1, MT4
# [9] = tested on: Human immunodeficiency virus 1; test: Antiviral activity against HIV1 harboring Y188L mutant infected in human MT4 cells assessed as reduction in virus-induced cytopathic effect by MTT assay; format: functional, organism-based; conditions: Human immunodeficiency virus 1, MT4
# [10] = tested on: Human immunodeficiency virus 1; test: Antiviral activity against HIV1 harboring E138K mutant infected in human MT4 cells assessed as reduction in virus-induced cytopathic effect by MTT assay; format: functional, organism-based; conditions: Human immunodeficiency virus 1, MT4
# [11] = tested on: Human immunodeficiency virus 1; test: Antiviral activity against HIV1 harboring L100I mutant infected in human MT4 cells assessed as reduction in virus-induced cytopathic effect by MTT assay; format: functional, organism-based; conditions: Human immunodeficiency virus 1, MT4
# [12] = target: Human immunodeficiency virus type 1 reverse transcriptase (Human immunodeficiency virus 1, UniProt Q72547); test: Inhibition of HIV1 reverse transcriptase assessed as reduction in biotin-dUTP incorporation into template incubated for 1 hr by ELISA
# MT4 = test: as §1; format: cell-based; conditions: mt4
# [13] = tested on: Human immunodeficiency virus 1; test: Potency index, ratio of etravirine EC50 to test compound EC50 for antiviral activity against HIV1 3B infected in human MT4 cells assessed as reduction in virus-induced cytopathic effect by MTT assay; format: functional
# [14] = tested on: Human immunodeficiency virus 1; test: Potency index, ratio of etravirine EC50 to test compound EC50 for antiviral activity against HIV1 harboring K103N mutant infected in human MT4 cells assessed as reduction in virus-induced cytopathic effect by MTT assay; format: functional
# [15] = Human immunodeficiency virus 1, RES056, MT4, read-out: EC50
Structure (SMILES),"EC50 [1, 15]",EC50 ([2]; read-out: EC50),selectivity ratio [3],selectivity ratio [4],CC50 [5],EC50 [6],EC50 [7],EC50 [8],EC50 [9],EC50 [10],EC50 [11],IC50 [12],EC50 ([2]; read-out: pEC50 (converted)),EC50 ([1]; mt4),CC50 (MT4),Ratio EC50 [13],Ratio EC50 [14]
Cc1cc(C#N)cc(C)c1Oc1ccnc(Nc2ccc(CN3CCCN(S(=O)(=O)N(C)C)CC3)cc2)n1,> 4190 nM,160 nM,26,< 1,4190 nM,–,–,–,–,–,–,–,–,–,–,–,–
Cc1cc(C#N)cc(C)c1Oc1ccnc(Nc2ccc(CN3CCN(S(=O)(=O)C4CC4)CC3)cc2)n1,> 4430 nM,25 nM,174,< 1,4430 nM,–,–,–,–,–,–,–,–,–,–,–,–
Cc1cc(/C=C/C#N)cc(C)c1Oc1ccnc(Nc2ccc(CN3CCN(S(=O)(=O)C(C)C)CC3)cc2)n1,> 3810 nM,5.6 nM,685,< 1,3810 nM,8.5 nM,69 nM,230 nM,> 3810 nM,36 nM,25 nM,–,–,–,–,–,–
CCS(=O)(=O)N1CCN(Cc2ccc(Nc3nccc(Oc4c(C)cc(/C=C/C#N)cc4C)n3)cc2)CC1,980 nM,5.7 nM,810,5,4600 nM,4.9 nM,46 nM,200 nM,1280 nM,17 nM,15 nM,52 nM,5.75 nM,–,–,–,–
Cc1cc(C#N)cc(C)c1Oc1ccnc(Nc2ccc(CN3CCN(S(=O)(=O)N(C)C)CC3)cc2)n1,> 4460 nM,48 nM,93,< 1,4460 nM,–,–,–,–,–,–,–,–,–,–,–,–
Cc1cn([C@H]2C[C@H](N=[N+]=[N-])[C@@H](CO)O2)c(=O)[nH]c1=O [ZIDOVUDINE],28 nM,26 nM,> 293,> 267,> 7480 nM,19 nM,13 nM,8.7 nM,8.6 nM,36 nM,7.1 nM,–,–,–,–,–,–
Cc1ccnc2c1NC(=O)c1cccnc1N2C1CC1 [NEVIRAPINE],> 15000 nM,150 nM,–,–,> 15000 nM,–,5050 nM,8040 nM,9070 nM,170 nM,620 nM,–,–,–,–,–,–
Cc1cc(C#N)cc(C)c1Oc1ccnc(Nc2ccc(CN3CCCN(S(=O)(=O)C4CC4)CC3)cc2)n1,–,100 nM,–,–,–,–,–,–,–,–,–,200 nM,100 nM,Not Active,Not Active,–,–
Cc1cc(/C=C/C#N)cc(C)c1Oc1ccnc(Nc2ccc(CN3CCN(S(=O)(=O)N(C)C)CC3)cc2)n1,> 3070 nM,4.5 nM,677,< 1,3070 nM,11 nM,92 nM,> 3070 nM,> 3070 nM,34 nM,29 nM,–,–,–,–,–,–
Cc1cc(C#N)cc(C)c1Oc1ccnc(Nc2ccc(CN3CCS(=O)(=O)CC3)cc2)n1,> 53200 nM,14 nM,3850,< 1,53200 nM,–,–,–,–,–,–,78 nM,14.1 nM,–,–,–,–
Cc1cc(/C=C/C#N)cc(C)c1Oc1ccnc(Nc2ccc(CN3CCCN(S(=O)(=O)N(C)C)CC3)cc2)n1,> 3900 nM,21 nM,182,< 1,3900 nM,–,–,–,–,–,–,94 nM,20.9 nM,–,–,–,–
Cc1cc(C#N)cc(C)c1Oc1ccnc(Nc2ccc(CN3CCSCC3)cc2)n1,> 24000 nM,28 nM,847,< 1,24000 nM,–,–,–,–,–,–,–,–,–,–,–,–
Cc1cc(/C=C/C#N)cc(C)c1Oc1ccnc(Nc2ccc(CN3CC[S+]([O-])CC3)cc2)n1,2680 nM,2.4 nM,9860,9,23400 nM,3.4 nM,67 nM,350 nM,5200 nM,9.8 nM,20 nM,51 nM,2.4 nM,–,–,2,–
Nc1ccn([C@@H]2CS[C@H](CO)O2)c(=O)n1 [LAMIVUDINE],6830 nM,6000 nM,> 15,> 13,> 87200 nM,2740 nM,3200 nM,2360 nM,2710 nM,6110 nM,1460 nM,–,–,–,–,–,–
Cc1cc(/C=C/C#N)cc(C)c1Oc1ccnc(Nc2ccc(CN3CCSCC3)cc2)n1,3560 nM,4.7 nM,3160,4,14900 nM,4.4 nM,99 nM,280 nM,4280 nM,25 nM,24 nM,62 nM,4.68 nM,–,–,–,–
Cc1cc(C#N)cc(C)c1Oc1ccnc(Nc2ccc(CN3CCCN(S(C)(=O)=O)CC3)cc2)n1,> 7850 nM,79 nM,100,< 1,7850 nM,–,–,–,–,–,–,–,–,–,–,–,–
C=CC(=O)N1CCN(Cc2ccc(Nc3nccc(Oc4c(C)cc(/C=C/C#N)cc4C)n3)cc2)CC1,> 5210 nM,5.7 nM,909,< 1,5210 nM,10 nM,84 nM,870 nM,> 5210 nM,41 nM,34 nM,71 nM,5.75 nM,–,–,–,–
Cc1cc(/C=C/C#N)cc(C)c1Oc1ccnc(Nc2ccc(CN3CCCN(S(C)(=O)=O)CC3)cc2)n1,> 17400 nM,27 nM,644,< 1,17400 nM,–,–,–,–,–,–,–,–,–,–,–,–
Cc1cc(C#N)cc(C)c1Oc1nc(Nc2ccc(C#N)cc2)nc(N)c1Br [ETRAVIRINE],61 nM,4.2 nM,–,–,> 4590 nM,–,15 nM,26 nM,19 nM,9.8 nM,8.3 nM,–,4.17 nM,–,–,–,–
Cc1cc(C#N)cc(C)c1Oc1ccnc(Nc2ccc(CN3CCN(S(=O)(=O)C(C)C)CC3)cc2)n1,> 4540 nM,30 nM,152,< 1,4540 nM,–,–,–,–,–,–,73 nM,30.2 nM,–,–,–,–
Cc1cc(/C=C/C#N)cc(C)c1Oc1ccnc(Nc2ccc(CN3CCS(=O)(=O)CC3)cc2)n1,1080 nM,2.1 nM,8640,17,18500 nM,1.9 nM,33 nM,91 nM,3090 nM,7.5 nM,11 nM,34 nM,2.09 nM,–,–,2,1.7
Cc1cc(C#N)cc(C)c1Oc1ccnc(Nc2ccc(CN3CC[S+]([O-])CC3)cc2)n1,> 54700 nM,17 nM,3250,< 1,54700 nM,–,–,–,–,–,–,–,–,–,–,–,–
C=CC(=O)N1CCN(Cc2ccc(Nc3nccc(Oc4c(C)cc(C#N)cc4C)n3)cc2)CC1,> 7580 nM,56 nM,134,< 1,7580 nM,–,–,–,–,–,–,160 nM,56.2 nM,–,–,–,–
Cc1cc(/C=C/C#N)cc(C)c1Oc1ccnc(Nc2ccc(CN3CCCN(S(=O)(=O)C(C)C)CC3)cc2)n1,> 4640 nM,19 nM,244,< 1,4640 nM,–,–,–,–,–,–,–,–,–,–,–,–
Cc1cc(/C=C/C#N)cc(C)c1Oc1ccnc(Nc2ccc(CN3CCN(S(=O)(=O)C4CC4)CC3)cc2)n1,> 4350 nM,6.1 nM,717,< 1,4350 nM,6.8 nM,64 nM,360 nM,> 4350 nM,31 nM,17 nM,–,–,–,–,–,–
O=C1Nc2ccc(Cl)cc2[C@@](C#CC2CC2)(C(F)(F)F)O1 [EFAVIRENZ],340 nM,2.8 nM,–,–,> 6340 nM,–,5 nM,–,260 nM,–,–,–,2.82 nM,–,–,–,–
CCS(=O)(=O)N1CCN(Cc2ccc(Nc3nccc(Oc4c(C)cc(C#N)cc4C)n3)cc2)CC1,> 5240 nM,17 nM,310,< 1,5240 nM,–,–,–,–,–,–,–,–,–,–,–,–
